Source: patent publication US12600726B2, “Antagonists of the muscarinic acetylcholine receptor M4” (Vanderbilt University, priority 2017, dated 2026)

How the values were obtained:
Mouse M4 = molecular target: T1, Mouse M4 (Mus musculus, UniProt P32211); assay: mAChR M4 cell-based functional calcium flux assay (mouse M4/Gqi5/CHO cells); details: for Emin (mouse M4): % ACh maximum at 30 μM
T1 construct: expressed in transfected cells; host or cells: CHO-K1 (ATCC), stably expressing M4 and Gqi5
T1 sequence (P32211 1-479): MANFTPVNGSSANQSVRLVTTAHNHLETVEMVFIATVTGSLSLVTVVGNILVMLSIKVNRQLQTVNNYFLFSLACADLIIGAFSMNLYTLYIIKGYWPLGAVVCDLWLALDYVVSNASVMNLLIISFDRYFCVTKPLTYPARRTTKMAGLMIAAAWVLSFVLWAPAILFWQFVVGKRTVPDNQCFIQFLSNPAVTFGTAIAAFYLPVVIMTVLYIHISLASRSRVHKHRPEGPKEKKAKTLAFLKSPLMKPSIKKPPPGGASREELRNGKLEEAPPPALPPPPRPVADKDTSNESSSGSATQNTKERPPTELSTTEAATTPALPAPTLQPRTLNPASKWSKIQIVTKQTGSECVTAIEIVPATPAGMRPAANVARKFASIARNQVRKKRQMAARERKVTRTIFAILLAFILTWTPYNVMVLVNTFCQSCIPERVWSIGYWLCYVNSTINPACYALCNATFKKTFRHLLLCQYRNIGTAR
Method: Human, rat, or mouse M4. cDNA, along with the chimeric G protein Gqi5, were transfected into Chinese hamster ovary (CHO-K1) cells purchased from the American Type Culture Collection using Lipofectamine2000. M4/Gqi5/CHO cells were grown in Ham's F-12 medium containing 10% heat-inactivated fetal bovine serum (FBS), 20 mM HEPES, 500 μg/mL G418 sulfate, and 200 μg/mL Hygromycin B.
For high throughput measurement of agonist-evoked increases in intracellular calcium, CHO-K1 cells stably expressing muscarinic receptors were plated in growth medium lacking G418 and hygromycin at 15,000 cells/20 μL/well in Greiner 384-well black-walled, tissue culture (TC)-treated, clear-bottom plates (VWR). Cells were incubated overnight at 37° C. and 5% CO2. The next day, cells were washed using an ELX 405 (BioTek) with assay buffer; the final volume was then aspirated to 20 μL. Next, 20 μL of a 2.3 μM stock of Fluo-4/acetoxymethyl ester (Invitrogen, Carlsbad, CA), prepared as a 2.3 mM stock in DMSO and mixed in a 1:1 ratio with 10% (w/v) Pluronic F-127 and diluted in assay buffer, was added to the wells and the cell plates were incubated for 50 min at 37° C. and 5% CO2. Dye was removed by washing with the ELX 405 and the final volume was aspirated to 20 μL. Compound master plates were formatted in a 10 point concentration-response curve (CRC) format (1:3 dilutions) in 100% DMSO with a starting concentration of 10 or 1 mM using a BRAVO liquid handler (Agilent). Test compound CRCs were then transferred to daughter plates (240 nL) using the Echo acoustic plate reformatter (Labcyte, Sunnyvale, CA) and then diluted into assay buffer (40 μL) to a 2× stock using a Thermo Fisher Combi (Thermo Fisher Scientific, Waltham, MA).
Calcium flux was measured using the Functional Drug Screening System (FDSS) 6000 or 7000 (Hamamatsu Corporation, Tokyo, Japan) as an increase in the fluorescent static ratio. Compounds were applied to cells (20 μL, 2×) using the automated system of the FDSS at 2 seconds into the protocol and the data were collected at 1 Hz. At 143 s, 10 μL of an EC20 concentration of the muscarinic receptor agonist acetylcholine was added (5×), followed by the addition of 12 μL of an EC80 concentration of acetylcholine at the 268 s time point (5×). Agonist activity was analyzed as a concentration-dependent increase in calcium mobilization upon compound addition. Positive allosteric modulator activity was analyzed as a concentration-dependent increase in the EC20 acetylcholine response. Antagonist activity was analyzed as a concentration-dependent decrease in the EC80 acetylcholine response; for the purposes of the tables herein, an IC50 (inhibitory concentration 50) was calculated as a concentration-dependent decrease of the response elicited by an EC80 concentration of acetylcholine. Concentration-response curves were generated using a four-parameter logistical equation in XLFit curve fitting software (IDBS, Bridgewater, NJ) for Excel (Microsoft, Redmond, WA) or Prism (GraphPad Software, Inc., San Diego, CA) or the Dotmatics software platform (Dotmatics, Bishop's Stortford, UK).
Compounds were synthesized as described above. Activity (IC50 and Emin) was determined in the mAChR M4 cell-based functional assay as described above and the data are shown in Table 2 and Table 3. The compound number corresponds to the compound numbers used in the examples and Tables 1 and 1.1.

[1] = tested on: haloperidol-induced catalepsy; assay: haloperidol-induced catalepsy, a model of parkinsonian motor disability; type: in vivo, mice
Description: Furthermore, haloperidol-induced catalepsy, a model of parkinsonian motor disability, is reduced in M4 knockout mice as compared to wild-type controls. […] The reversal by scopolamine was uncommonly robust and more pronounced than we observe with agents targeting a number of other targets being evaluated for potential antiparkinsonian effects, including metabotropic glutamate (mGlu) receptors mGlu4 or mGlu5, A2A adenosine receptors, and NMDA receptors. […] Taken together with the extensive studies of M4 modulation of basal ganglia and motor function, these studies provide compelling evidence that M4 is the dominant mAChR subtype involved in the antiparkinsonian effects of non-selective mAChR antagonists and provide support for discovery and development of selective M4 antagonists for treatment of neurodegenerative disease such as PD, dystonia, tardive dyskinesia and other movement disorders.

[2] = decrease of the response to an EC80 concentration of acetylcholine

| SMILES | Emin (mouse M4) (Mouse M4) [%] | IC50 (Mouse M4; [2]) [µM] | IC50 (Mouse M4; in μM, decrease of the EC80 acetylcholine response) [µM] | reduction of haloperidol-induced catalepsy ([1]; M4 KO mice) | reversal of haloperidol-induced catalepsy ([1]; WT mice) |
| --- | --- | --- | --- | --- | --- |
| CC(C)(C)CCN1CCC2(CC1)CC2CNc1ccc(N2CCCCC2)nn1 (stereo not shown) [Compound 78, N-[[6-(3,3-dimethylbutyl)-6-azaspiro[2.5]octan-2-yl]methyl]-6-(1-piperidyl)pyridazin-3-amine] | 8 | 1.24 |  |  |  |
| Fc1ccc(Cl)c(-c2ccc(OCC3CC34CCN(CC3CC5C=CC3C5)CC4)nn2)c1 (stereo not shown) [Compound 86, 6-(5-bicyclo[2.2.1]hept-2-enylmethyl)-2-[[6-(2-chloro-5-fluoro-phenyl)pyridazin-3-yl]oxymethyl]-6-azaspiro[2.5]octane] | 3 | 2.81 |  |  |  |
| CC(C)(C)CCN1CCC2(CC1)CC2CNc1ccc2nccn2n1 (stereo not shown) [Compound 102, N-[[6-(3,3-dimethylbutyl)-6-azaspiro[2.5]octan-2-yl]methyl]imidazo[1,2-b]pyridazin-6-amine] | 8 | 1.29 |  |  |  |
| C1=CC2CC1CC2CN1CCC2(CC1)CC2CNc1ccc2nncn2n1 (stereo not shown) [Compound 103, N-[[6-(5-bicyclo[2.2.1]hept-2-enylmethyl)-6-azaspiro[2.5]octan-2-yl]methyl]-[1,2,4]triazolo[4,3-b]pyridazin-6-amine] | 13 | 1.5 |  |  |  |
| CC(C)(C)CCN1CCC2(CC1)CC2CNc1ccc2nncn2n1 (stereo not shown) [Compound 104, N-[[6-(3,3-dimethylbutyl)-6-azaspiro[2.5]octan-2-yl]methyl]-[1,2,4]triazolo[4,3-b]pyridazin-6-amine] | 17 | 2.82 |  |  |  |
| c1cc2nncn2nc1NCC1CC12CCN(CC1CCCCC1)CC2 (stereo not shown) [Compound 105, N-[[6-(cyclohexylmethyl)-6-azaspiro[2.5]octan-2-yl]methyl]-[1,2,4]triazolo[4,3-b]pyridazin-6-amine] | 37 |  | > 10 |  |  |
| Fc1ccc(Cl)c(-c2ccc(NC[C@@H]3CC34CCN(CC3CCCOC3)CC4)nn2)c1 (stereo partly drawn) [Compound 106, (R)-6-(2-chloro-5-fluoro-phenyl)-N-[[6-(tetrahydropyran-3-ylmethyl)-6-azaspiro[2.5]octan-2-yl]methyl]pyridazin-3-amine] | 9 | 0.68 |  |  |  |
| CN1[C@@H]2C[C@@H](OC(=O)[C@H](CO)c3ccccc3)C[C@H]1[C@@H]1O[C@@H]12 [scopolamine] |  |  |  | ineffective | completely reversed |
